Broadly, the EC50 is the concentration at which the effect is half-maximal.

In the assay the test system is HBV rcDNA in HepDE19 cells. The assay can be described thus: HepDE19 assay with bDNA quantitation of HBV rcDNA. Type of assay: cell-based, hepatitis B virus. Particulars: Hepatitis B virus, HepDE19, HepDE19 assay, inhibition of rcDNA formation, bDNA quantitation; read-out: DE-19bDNA EC50.
Regarding `CN(C(=O)c1cc(F)c(Cl)c(F)c1)[C@@H]1COCc2[nH]c(=O)c3cc(F)c(F)cc3c21` [Compound 173, 4-Chloro-N-(8,9-difluoro-6-oxo-2,4,5,6-tetrahydro-1H-pyrano[3,4-c]isoquinolin-1-yl)-3,5-difluoro-N-methylbenzamide], the EC50 stood at 10 nM.

`CN(C(=O)c1cc(F)c(C(F)F)c(F)c1)[C@@H]1COCc2[nH]c(=O)c3cc(F)c(F)cc3c21` [Compound 180, (S)-N-(8,9-Difluoro-6-oxo-1,4,5,6-tetrahydro-2H-pyrano[3,4-c]isoquinolin-1-yl)-4-(difluoromethyl)-3,5-difluoro-N-methylbenzamide]: the EC50 came to 160 nM.

Regarding `CN(C(=O)c1cc2cc(F)c(F)cc2[nH]1)[C@@H]1COC(O)c2[nH]c(=O)c3cc(F)c(F)cc3c21` (stereo partly drawn) [Compound 187, N-((1S)-8,9-Difluoro-4-hydroxy-6-oxo-1,4,5,6-tetrahydro-2H-pyrano[3,4-c]isoquinolin-1-yl)-5,6-difluoro-N-methyl-1H-indole-2-carboxamide], the EC50 was 10 nM.

Regarding `CN(C(=O)c1cnn(C)c1)[C@@H]1COCc2[nH]c(=O)c3cc(F)c(F)cc3c21` [Compound 188, (S)-N-(8,9-Difluoro-6-oxo-1,4,5,6-tetrahydro-2H-pyrano[3,4-c]isoquinolin-1-yl)-N,1-dimethyl-1H-pyrazole-4-carboxamide], the EC50 was 18300 nM.

Take `C=C(C(=O)N(C)[C@@H]1COCc2[nH]c(=O)c3cc(F)c(F)cc3c21)c1ccccc1` [Compound 189, (S)-N-(8,9-Difluoro-6-oxo-1,4,5,6-tetrahydro-2H-pyrano[3,4-c]isoquinolin-1-yl)-N-methyl-2-phenylacrylamide]: the EC50 was found to be 4400 nM.

As for `CN(C(=O)c1cc2cc(F)cnc2[nH]1)[C@@H]1COCc2[nH]c(=O)c3cc(F)c(F)cc3c21` [Compound 190, (S)-N-(8,9-Difluoro-6-oxo-1,4,5,6-tetrahydro-2H-pyrano[3,4-c]isoquinolin-1-yl)-5-fluoro-N-methyl-1H-pyrrolo[2,3-b]pyridine-2-carboxamide], the EC50 is 330 nM.

Regarding `CN(C(=O)c1cc2cc(Cl)cnc2[nH]1)[C@@H]1COCc2[nH]c(=O)c3cc(F)c(F)cc3c21` [Compound 191, (S)-5-Chloro-N-(8,9-difluoro-6-oxo-1,4,5,6-tetrahydro-2H-pyrano[3,4-c]isoquinolin-1-yl)-N-methyl-1H-pyrrolo[2,3-b]pyridine-2-carboxamide], the EC50 amounted to 120 nM.

For `CN(C(=O)c1cc2cc(Br)cnc2[nH]1)[C@@H]1COCc2[nH]c(=O)c3cc(F)c(F)cc3c21` [Compound 192, (S)-5-Bromo-N-(8,9-difluoro-6-oxo-1,4,5,6-tetrahydro-2H-pyrano[3,4-c]isoquinolin-1-yl)-N-methyl-1H-pyrrolo[2,3-b]pyridine-2-carboxamide], the EC50 was 260 nM.

With `CN(C(=O)c1c[nH]c(=O)c(C(F)(F)F)c1)[C@@H]1COCc2[nH]c(=O)c3cc(F)c(F)cc3c21` [Compound 193, (S)-N-(8,9-Difluoro-6-oxo-1,4,5,6-tetrahydro-2H-pyrano[3,4-c]isoquinolin-1-yl)-N-methyl-6-oxo-5-(trifluoromethyl)-1,6-dihydropyridine-3-carboxamide], the EC50 came out at 3200 nM.

In the case of `CN(C(=O)c1csc(Br)c1)[C@@H]1COCc2[nH]c(=O)c3cc(F)c(F)cc3c21` [Compound 194, (S)-5-Bromo-N-(8,9-difluoro-6-oxo-1,4,5,6-tetrahydro-2H-pyrano[3,4-c]isoquinolin-1-yl)-N-methylthiophene-3-carboxamide], the EC50 is 70 nM.

Take `CN(C(=O)C1Cc2ccccc2C1)[C@@H]1COCc2[nH]c(=O)c3cc(F)c(F)cc3c21` [Compound 195, (S)-N-(8,9-Difluoro-6-oxo-1,4,5,6-tetrahydro-2H-pyrano[3,4-c]isoquinolin-1-yl)-N-methyl-2,3-dihydro-1H-indene-2-carboxamide]: the concentration for a half-maximal effect (EC50) was 150 nM.

As for `CN(C(=O)c1cnn(C(C)(C)C)c1)[C@@H]1COCc2[nH]c(=O)c3cc(F)c(F)cc3c21` [Compound 196, (S)-1-(tert-Butyl)-N-(8,9-difluoro-6-oxo-1,4,5,6-tetrahydro-2H-pyrano[3,4-c]isoquinolin-1-yl)-N-methyl-1H-pyrazole-4-carboxamide], the EC50 turned out to be 3100 nM.

For the molecule `CN(C(=O)c1cnn(C(F)(F)F)c1)[C@@H]1COCc2[nH]c(=O)c3cc(F)c(F)cc3c21` [Compound 197, (S)-N-(8,9-Difluoro-6-oxo-1,4,5,6-tetrahydro-2H-pyrano[3,4-c]isoquinolin-1-yl)-N-methyl-1-(trifluoromethyl)-1H-pyrazole-4-carboxamide], the 50% effective concentration (EC50) is 440 nM.

For `CN(C(=O)c1cc(Br)c[nH]1)[C@@H]1COCc2[nH]c(=O)c3cc(F)c(F)cc3c21` [Compound 198, (S)-4-Bromo-N-(8,9-difluoro-6-oxo-1,4,5,6-tetrahydro-2H-pyrano[3,4-c]isoquinolin-1-yl)-N-methyl-1H-pyrrole-2-carboxamide], the EC50 came to 220 nM.

Consider `CN(C(=O)c1ccc(Cl)c(=O)[nH]1)[C@@H]1COCc2[nH]c(=O)c3cc(F)c(F)cc3c21` [Compound 201, (S)-5-Chloro-N-(8,9-difluoro-6-oxo-1,4,5,6-tetrahydro-2H-pyrano[3,4-c]isoquinolin-1-yl)-N-methyl-6-oxo-1,6-dihydropyridine-2-carboxamide], for which the EC50 was found to be 10000 nM.

Regarding `CN(C(=O)c1cc2cc(Cl)ncc2[nH]1)[C@@H]1COCc2[nH]c(=O)c3cc(F)c(F)cc3c21` [Compound 204, (S)-5-Chloro-N-(8,9-difluoro-6-oxo-1,4,5,6-tetrahydro-2H-pyrano[3,4-c]isoquinolin-1-yl)-N-methyl-1H-pyrrolo[2,3-c]pyridine-2-carboxamide], the EC50 was found to be 40 nM.

Take `CN(C(=O)c1c[nH]c(=O)c(Br)c1)[C@@H]1COCc2[nH]c(=O)c3cc(F)c(F)cc3c21` [Compound 205, (S)-5-Bromo-N-(8,9-difluoro-6-oxo-1,4,5,6-tetrahydro-2H-pyrano[3,4-c]isoquinolin-1-yl)-N-methyl-6-oxo-1,6-dihydropyridine-3-carboxamide]: the EC50 was determined as 15800 nM.

As for `CN(C(=O)c1cc2nc(Cl)ccc2[nH]1)[C@@H]1COCc2[nH]c(=O)c3cc(F)c(F)cc3c21` [Compound 206, (S)-5-Chloro-N-(8,9-difluoro-6-oxo-1,4,5,6-tetrahydro-2H-pyrano[3,4-c]isoquinolin-1-yl)-N-methyl-1H-pyrrolo[3,2-b]pyridine-2-carboxamide], the EC50 amounted to 630 nM.

With `CN(C(=O)C1(O)CCCCC1)[C@@H]1COCc2[nH]c(=O)c3cc(F)c(F)cc3c21` [Compound 211, (S)-N-(8,9-Difluoro-6-oxo-1,4,5,6-tetrahydro-2H-pyrano[3,4-c]isoquinolin-1-yl)-1-hydroxy-N-methylcyclohexane-1-carboxamide], the EC50 is 7660 nM.

In the case of `CN(C(=O)c1cc2cc(F)c(C(F)F)cc2[nH]1)[C@@H]1COCc2[nH]c(=O)c3cc(F)c(F)cc3c21` [Compound 212, (S)-N-(8,9-Difluoro-6-oxo-1,4,5,6-tetrahydro-2H-pyrano[3,4-c]isoquinolin-1-yl)-6-(difluoromethyl)-5-fluoro-N-methyl-1H-indole-2-carboxamide], the EC50 came to 10 nM.
